Assay results reported in patent US20040220224A1, “Method of treating irritable bowel syndrome” (Pfizer Inc, priority 2003, published 2004).

Tested on: female BALB/c or CD-1 mice
Assay: Intestinal motility model in mice (gastrointestinal transit of red dye)
Format: in vivo
Settings: mice fasted 24 h, red dye 1 h after treatment, measured 20 min later
Method: Intestinal Motility Model:
An intestinal motility model in mice may be used to evaluate of antimuscarinic compounds of formulae I-V as potential treatment for irritable bowel syndrome. In the studies, female BALB/c or CD-1 mice are fasted for 24 hours and then treated orally with one or more compounds of formulae I-V or vehicle. One hour after of treatment, the mice receive a red dye mixture via gastric gavage. Twenty minutes later, the animals are euthanized and the small intestine is removed. Gastrointestinal transit (GIT) is calculated using the measured length of the small intestine from the pyloric sphincter to the ileocecal junction and the distance traveled by the red dye front. Percent inhibition is indicated above bars.

NC(=O)C(c1ccccc1)(c1ccccc1)[C@@H]1CCN(CCc2ccc3c(c2)CCO3)C1 [reference compound]
inhibition of gastrointestinal transit (GIT) (oral dose 30 mg/kg): about 15% | inhibition of gastrointestinal transit (GIT) (oral dose 60 mg/kg): about 15%

Cc1ccc(O)c([C@H](CC[N+](C)(C(C)C)C(C)C)c2ccccc2)c1 [Example 3, (3R)-3-(2-Hydroxy-5-methylphenyl)-N,N-diisopropyl-N-methyl-3-phenylpropan-1-aminium bromide]
inhibition of gastrointestinal transit (GIT) (oral dose 10 mg/kg): 17% | inhibition of gastrointestinal transit (GIT) (oral dose 30 mg/kg): 29% | inhibition of gastrointestinal transit (GIT) (oral dose 60 mg/kg): 28%

C[N+]1(CCc2ccc3c(c2)CCO3)CC[C@@H](C(C(N)=O)(c2ccccc2)c2ccccc2)C1.[I-] (stereo partly drawn) [Example 27, (3S)-3-(2-amino-2-oxo-1,1-diphenylethyl)-1-[2-(2,3-dihydro-1-benzofuran-5-yl)ethyl]-1-methylpyrrolidinium iodide]
inhibition of gastrointestinal transit (GIT) (oral dose 10 mg/kg): 13% | inhibition of gastrointestinal transit (GIT) (oral dose 30 mg/kg): 20% | inhibition of gastrointestinal transit (GIT) (oral dose 60 mg/kg): 30%
